Results as given in patent publication US20210300900A1, “OGA INHIBITOR COMPOUNDS” (Janssen Pharmaceutica NV, priority 2018, published 2021).
Where a name gives a salt, the structure may show the parent alone.

What was measured:
[1] = target: T1, recombinant human Meningioma Expressed Antigen 5 (MGEA5), also referred to as O-GcNAcase (OGA) (Homo sapiens, UniProt O60502); assay: OGA biochemical assay (inhibition of FM-GlcNAc hydrolysis, fluorescence); details: FM-GlcNAc substrate; for Emax: read-out: Enzymatic Emax (%); for IC50: read-out: Enzymatic hOGA, pIC50 (converted)
T1 construct: Full length OGA enzyme was purchased at OnGene (cat #TP322411); purchased OnGene (so in the source)
T1 sequence (O60502 1-916): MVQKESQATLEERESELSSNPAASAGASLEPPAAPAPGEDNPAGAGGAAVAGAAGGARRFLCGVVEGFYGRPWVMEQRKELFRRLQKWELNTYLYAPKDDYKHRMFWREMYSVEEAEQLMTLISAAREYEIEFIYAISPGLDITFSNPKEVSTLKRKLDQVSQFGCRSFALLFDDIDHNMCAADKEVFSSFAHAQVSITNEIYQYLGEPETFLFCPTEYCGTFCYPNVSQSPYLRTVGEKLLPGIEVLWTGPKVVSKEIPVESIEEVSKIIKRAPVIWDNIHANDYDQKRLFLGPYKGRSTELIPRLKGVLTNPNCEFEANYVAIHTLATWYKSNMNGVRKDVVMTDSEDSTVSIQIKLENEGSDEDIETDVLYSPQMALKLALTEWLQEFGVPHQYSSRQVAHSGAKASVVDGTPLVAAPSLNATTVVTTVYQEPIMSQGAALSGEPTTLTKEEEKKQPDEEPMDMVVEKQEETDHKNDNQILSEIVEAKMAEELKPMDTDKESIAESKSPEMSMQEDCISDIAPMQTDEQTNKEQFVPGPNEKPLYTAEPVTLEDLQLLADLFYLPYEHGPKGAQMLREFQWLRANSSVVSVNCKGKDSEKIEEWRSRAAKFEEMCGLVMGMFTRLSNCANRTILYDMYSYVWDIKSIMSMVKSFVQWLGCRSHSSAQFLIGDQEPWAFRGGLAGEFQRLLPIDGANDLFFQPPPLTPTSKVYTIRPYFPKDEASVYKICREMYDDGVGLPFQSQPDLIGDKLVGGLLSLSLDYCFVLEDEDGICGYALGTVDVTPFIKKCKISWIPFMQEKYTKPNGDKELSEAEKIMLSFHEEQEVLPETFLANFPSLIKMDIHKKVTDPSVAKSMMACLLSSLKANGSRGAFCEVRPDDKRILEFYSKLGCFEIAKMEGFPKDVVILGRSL
In short: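 Full-length recombinant human OGA (2 nM) pre-incubated 60 min with compound, then FM-GlcNAc (100 uM final) added in 200 mM citrate/phosphate pH 7.2 with 0.005% Tween-20; 6 h at room temperature, stopped with pH 11.0 carbonate. Fluorescein read at ex 485/em 538 nm; IC50 and Hill coefficient from curve fit against no-inhibitor and saturating-standard controls.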

[2] = target: T2, OGA (Homo sapiens, UniProt O60502); assay: OGA cellular assay (ICC detection of O-GlcNAcylated proteins in HEK293 cells inducible for P301L mutant human Tau); format: cell-based; details: 6 hours incubation; for Emax: HEK293, HEK293 cells inducible for P301L mutant human Tau; for Emax / Cellular Emax (%): maximum = Thiamet G 200 uM; for EC50 / Cellular Emax (%) / Cellular hOGA; pEC50: HEK293 cells inducible for P301L mutant human Tau; for EC50: read-out: Cellular hOGA, pEC50 (converted)
T2 construct: endogenous in cells; host or cells: HEK293 cells inducible for P301L mutant human Tau (isoform 2N4R)
T2 sequence (O60502 1-916): T1 sequence (O60502 1-916)
Protocol: HEK293 cells inducible for P301L mutant human Tau (isoform 2N4R) were established at Janssen. Thiamet-G was used for both plate validation (high control) and as reference compound (reference EC50 assay validation). OGA inhibition is evaluated through the immunocytochemical (ICC) detection of O-GlcNAcylated proteins by the use of a monoclonal antibody (CTD110.6; Cell Signaling, #9875) detecting O-GlcNAcylated residues as previously described (Dorfmueller et al. 2010 Chemistry & biology, 17:1250). Inhibition of OGA will result in an increase of O-GlcNAcylated protein levels resulting in an increased signal in the experiment. Cell nuclei are stained with Hoechst to give a cell culture quality control and a rough estimate of immediate compounds toxicity, if any. ICC pictures are imaged with a Perkin Elmer Opera Phenix plate microscope and quantified with the provided software Perkin Elmer Harmony 4.1.
Cells were propagated in DMEM high Glucose (Sigma, #D5796) following standard procedures. 2 days before the cell assay cells are split, counted and seeded in Poly-D-Lysine (PDL) coated 96-wells (Greiner, #655946) plate at a cell density of 12,000 cells per cm^2 (4,000 cells per well) in 100 μl of Assay Medium (Low Glucose medium is used to reduce basal levels of GlcNAcylation) (Park et al. 2014 The Journal of biological chemistry 289:13519). At the day of compound test medium from assay plates was removed and replenished with 90 μl of fresh Assay Medium. 10 μl of compounds at a 10 fold final concentration were added to the wells. Plates were centrifuged shortly before incubation in the cell incubator for 6 hours. DMSO concentration was set to 0.2%. Medium is discarded by applying vacuum. For staining of cells medium was removed and cells washed once with 100 μl D-PBS (Sigma, #D8537). From next step onwards unless other stated assay volume was always 50 μl and incubation was performed without agitation and at room temperature. Cells were fixed in 50 μl of a 4% paraformaldehyde (PFA, Alpha aesar, #043368) PBS solution for 15 minutes at room temperature. […] Before analysis samples were washed 2 times manually for 5 minutes in ICC base buffer.
Imaging is performed using Perkin Elmer Phenix Opera using a water 20×objective and recording 9 fields per well. Intensity readout at 488 nm is used as a measure of O-GlcNAcylation level of total proteins in wells. To assess potential toxicity of compounds nuclei were counted using the Hoechst staining. IC50-values are calculated using parametric non-linear regression model fitting. As a maximum inhibition Thiamet G at a 200 uM concentration is present on each plate. In addition, a concentration response of Thiamet G is calculated on each plate.

Emax [1] [%] | IC50 [1] [nM] | Emax [2] [%] | EC50 [2] [nM] | Structure (SMILES) | further results
 |  |  |  | CC(=O)Nc1cc(C(C)N2CCCC(CNc3cc(C)nc(C)c3)C2)[nH]n1 (centres unmarked) (as salt: HCl) [Product 83] | melting point: 245 °C
 |  |  |  | CC(=O)Nc1cc(CN2CCCC(COc3cc(C)nc(C)c3)C2)n[nH]1 (centres unmarked) (as salt: hydrochloric acid salt) [Product 119] | melting point: 192.2 °C
 |  |  |  | COc1cc(NC[C@H]2CCCN(C(C)c3nc(OC)ccc3F)C2)cc(C)n1 (mixture of isomers) (as salt: HCl) [Product 90] | melting point: 151.3 °C
 |  |  |  | CC(=O)Nc1cc(CN2CCC[C@H](Cc3cc(C)nc(C)c3)C2)cnn1 (as salt: HCl) [Product 62] | melting point: 206.5 °C
 |  |  |  | CC(=O)Nc1cncc(CN2CCC[C@H](Cc3cc(C)nc(C)c3)C2)c1 (as salt: HCl) [Product 34] | melting point: 186.5 °C
102 | 2.57 | 84 | 47.9 | CC(=O)Nc1cc(C(C)N2CCC[C@H](Cc3cc(C)nc(C)c3)C2)n[nH]1 (stereo in doubt) [Product 3] | 
102 | 110 | 12 | > 1000 | CC(=O)Nc1nc(C(C)N2CCC[C@H](Cc3cc(C)nc(C)c3)C2)c[nH]1 (mixture of isomers) [Product 136] | 
101 | 24.5 | 59 | 468 | Cc1cc(C[C@H]2CCCN(C(C)c3cc(C4CC4)[nH]n3)C2)cc(C)n1 (mixture of isomers) [Product 21] | 
 | 14.8 | 49 | 955 | COc1ccc(F)c(C(C)N2CCC[C@H](Cc3cc(C)nc(C(F)(F)F)c3)C2)n1 (some centres unmarked) [Product 77] | Enzymatic Emax (%) [1]: 101%
 |  |  |  | COc1ccc(F)c(C(C)N2CCCC(CNc3cc(C)nc(C(F)(F)F)c3)C2)n1 (centres unmarked) (as salt: HCl) [Product 96] | melting point: 211.6 °C
97 | 891 | 6 | > 1000 | COc1ccc(F)c(C(C)N2CCCC(Oc3cc(C)nc(C(F)(F)F)c3)C2)n1 (centres unmarked) [Product 82] | 
 |  |  |  | CCC(=O)Nc1cncc(C(C)N2CCC[C@H](Cc3cc(C)nc(C)c3)C2)c1 (mixture of isomers) (as salt: HCl) [Product 38] | melting point: 188.1 °C
92 | 1000 | 17 | > 1000 | CC(=O)Nc1cc(C(C)N2CC[C@H](Cc3cc(C)nc(C(F)(F)F)c3)C2)n[nH]1 (mixture of isomers) [Product 122] | 
 | 52.5 |  | > 1000 | COc1cc(C[C@H]2CCCN(C(C)c3nc(OC)ccc3F)C2)cc(C)n1 (some centres unmarked) [Product 76] | Enzymatic Emax (%) ([1]; listed as 76): 101%; Cellular Emax (%) ([2]; listed as 76): 30%
100 | 26.9 | 41 | > 1000 | CCOc1cncc(C(C)N2CCC[C@H](Cc3cc(C)nc(C)c3)C2)c1 (mixture of isomers) [Product 44] | 
101 | 4.68 | 59 | 240 | CC(=O)Nc1ccc(C(C)N2CCC[C@H](Cc3cc(C)nc(C)c3)C2)s1 (mixture of isomers) [Product 134] | 
93 | 1200 | 25 | > 1000 | CC(=O)Nc1cnc(CN2CCC[C@H](Cc3cc(C)nc(C)c3)C2)cn1 [Product 63] | 
91 | 490 | 4 | > 1000 | CC(=O)Nc1cncc(CN2CCC[C@H](Cc3cc(C)nc(C)c3)C2)c1 [Product 34] | 
102 | 35.5 | 48 | 676 | COc1ccc(F)c(C(C)N2CCCC(c3cc(C)nc(C)c3)C2)n1 (centres unmarked) [Product 74] | 
 |  | -6 | > 1000 | CCOc1cc(CN2CCC[C@H](Cc3cc(C)nc(C)c3)C2)n(C)n1 [Product 162] | Enzymatic Emax (%) [1]: 36%
 |  |  |  | COc1cccc([C@H](C)N2CCC[C@H](Cc3cc(C)nc(C)c3)C2)n1 [Product 47] | Enzymatic Emax (%) [1]: 102%; Enzymatic hOGA; pIC50 [1]: 7.28; Cellular hOGA; pEC50 [2]: 6.29; Cellular Emax (%) [2]: 67%
102 | 107 | 4 | > 1000 | COc1ccc(F)c(C(C)N2CCCC(Oc3cc(C)nc(C)c3)C2)n1 (centres unmarked) [Product 137] | 
 |  |  |  | COc1ccc(F)c([C@H](C)N2CCC[C@H](Cc3cc(C)nc(C)c3)C2)n1 [Product 42] | Enzymatic Emax (%) [1]: 103%; Enzymatic hOGA; pIC50 [1]: 7.88; Cellular hOGA; pEC50 [2]: 7.03; Cellular Emax (%) [2]: 100%
102 | 18.6 | 83 | 200 | COc1cc(C[C@H]2CCCN(C(C)c3cc(NC(C)=O)[nH]n3)C2)cc(C)n1 (some centres unmarked) [Product 66] | 
100 | 19.1 | 75 | 309 | CC(=O)Nc1ccc(CN2CCC[C@H](Cc3cc(C)nc(C)c3)C2)s1 [Product 28] | 
95 | 871 | 4 | > 1000 | COc1cc(C(C)N2CC[C@H](Cc3cc(C)nc(OC)c3)C2)c(F)cn1 (mixture of isomers) [Product 130] | 
102 | 60.3 | 70 | 427 | CCOc1nc(CN2CCC[C@H](Cc3cc(C)nc(C)c3)C2)c[nH]1 [Product 23] | 
101 | 10.2 | 60 | 490 | CCOc1cnc(C(C)N2CCC[C@H](Cc3cc(C)nc(C)c3)C2)o1 (mixture of isomers) [Product 30] | 
101 | 21.4 | 56 | 692 | CC(=O)Nc1cc(CN2CCC[C@H](Cc3cc(C)nc(C)c3)C2)n[nH]1 [Product 1] | 
 |  |  |  | COc1cccc([C@H](C)N2CCC[C@@H](CNc3cc(C)nc(C(F)(F)F)c3)C2)n1 [Product 95] | Enzymatic Emax (%) [1]: 103%; Enzymatic hOGA; pIC50 [1]: 7.8; Cellular hOGA; pEC50 [2]: <6; Cellular Emax (%) [2]: 44%
